The numbers were not newly measured in patent US20210274780A1, “Disinfectant Composition Against the Novel Wuhan Corona Virus COVID-19” (priority 2020, published 2021), which cites them from elsewhere.

A value given as a limit tells only on which side of the number the result lay.

`[H]/N=C(\N/C(=N/[H])NCCCCCCNC(=N)NC(=N)Nc1ccc(Cl)cc1)Nc1ccc(Cl)cc1` [Chlorhexidine]: the effective concentration in the data set on Gram-positive bacteria was no less than 1 µg/L. Also, the effectiveness against polioviruses result in the data set with polioviruses is reported as “ineffective”. In addition, in the data set with adenoviruses, the effectiveness against adenoviruses entry was “ineffective”.
